Data set [1] concerns IFNγ-induced NO production in Raw 264.7 cells. In words: Nitric oxide assay: suppression of IFNγ-induced NO production (Griess nitrite, adjusted to live cell numbers). It counts as cell-based. Particulars: Mus musculus, RAW264.7, 2 h pretreatment, IFNγ 10 ng/ml for 24 hours. As to the method:
Raw 264.7 cells were seeded in 96-well plates at a density of 30, 000 cells per well in DMEM+10% FBS and incubated overnight. The next day, cell media was replaced by DMEM+2% FBS. Cells were pretreated with DMSO or test compounds (top dose 100 nM, 1:4 serial dilution, 10-point) for 2 hours and then treated with recombinant mouse IFNγ (R&D, Cat# 485-MI-100) at a final concentration of 10 ng/ml for 24 hours. Nitrite levels were measured in culture media as a surrogate for nitric oxide using the Griess Reagent System (Promega, Cat# G2930). Cell viability was determined using CellTiter Glo reagents (Promega, Cat#G7572). The nitrite levels were adjusted to live cell numbers and inhibition percentage was calculated. The inhibition percentage was then plotted against compound concentration, and IC50 values were calculated using four-parameter algorithm in Graphpad Prism.
On the technique in general: The Griess reaction detects nitrite, a stable product of nitric oxide.

Data set [2] has as its target T1, CYP1A2 (Homo sapiens, UniProt P05177).
T1 construct: studied in liver microsomes of CD-1 mouse, Sprague Dawley rat, Beagle dog, cynomolgus monkey, and human; from tissue; host or cells: liver microsomes
T1 sequence (P05177 1-516): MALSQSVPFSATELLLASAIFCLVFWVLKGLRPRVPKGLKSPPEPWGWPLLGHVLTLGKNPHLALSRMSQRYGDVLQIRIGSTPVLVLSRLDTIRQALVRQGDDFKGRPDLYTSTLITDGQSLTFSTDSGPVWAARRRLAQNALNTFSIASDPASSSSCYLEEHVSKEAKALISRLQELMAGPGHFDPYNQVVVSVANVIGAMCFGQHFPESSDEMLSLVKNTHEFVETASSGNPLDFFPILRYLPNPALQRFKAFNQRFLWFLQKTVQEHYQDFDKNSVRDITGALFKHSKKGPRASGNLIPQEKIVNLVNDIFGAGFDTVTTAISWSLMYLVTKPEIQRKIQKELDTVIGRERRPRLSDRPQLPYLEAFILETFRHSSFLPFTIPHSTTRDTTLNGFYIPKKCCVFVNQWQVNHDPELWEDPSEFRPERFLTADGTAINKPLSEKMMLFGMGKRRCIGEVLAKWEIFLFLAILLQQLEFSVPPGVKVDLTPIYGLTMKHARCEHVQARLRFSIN
In words: CYP450 enzyme inhibition in liver microsomes (cocktail probe incubation). Particulars: species not given, 0.05-50 μM tested. The format is in vitro ADME. Here is the method: (§1) The inhibition potential of test compounds towards major drug metabolizing CYP450 enzymes was studied in liver microsomes of CD-1 mouse, Sprague Dawley rat, Beagle dog, cynomolgus monkey, and human. The inhibition of CYP1A2, CYP2C9, CYP2C19, CYP2D6, and CYP3A4 was assessed using CYP450 specific probe reactions in a cocktail incubation. Seven concentrations of test compounds (0.05, 0.15, 0.5, 1.5, 5, 15, and 50 μM) were evaluated. In addition, known inhibitors for each probe reaction were included as positive controls and incubated at a single concentration above their respective IC50.
Background: Liver microsomes are vesicles of endoplasmic reticulum, rich in cytochrome P450 enzymes.

For data set [3], the target named is T2, CYP2C19 (Homo sapiens, UniProt P33261).
T2 construct: studied in liver microsomes of CD-1 mouse, Sprague Dawley rat, Beagle dog, cynomolgus monkey, and human; from tissue; host or cells: liver microsomes
T2 sequence (P33261 whole entry): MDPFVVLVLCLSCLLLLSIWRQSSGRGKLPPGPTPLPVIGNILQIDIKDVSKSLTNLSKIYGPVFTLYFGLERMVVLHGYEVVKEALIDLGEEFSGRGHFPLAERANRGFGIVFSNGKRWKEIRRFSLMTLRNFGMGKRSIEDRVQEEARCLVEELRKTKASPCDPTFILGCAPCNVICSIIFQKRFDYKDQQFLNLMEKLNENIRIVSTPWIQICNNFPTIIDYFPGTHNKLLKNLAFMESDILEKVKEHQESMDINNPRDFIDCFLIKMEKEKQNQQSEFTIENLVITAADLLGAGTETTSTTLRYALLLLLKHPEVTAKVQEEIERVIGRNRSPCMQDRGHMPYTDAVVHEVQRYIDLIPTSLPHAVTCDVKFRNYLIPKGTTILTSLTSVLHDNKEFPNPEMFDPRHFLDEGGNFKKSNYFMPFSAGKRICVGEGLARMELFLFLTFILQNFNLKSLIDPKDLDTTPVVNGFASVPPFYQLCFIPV
The description is as above. It counts as in vitro ADME. Particulars: species not given, 0.05-50 μM tested. As to the method:
as §1

The target in data set [4] is T3, CYP2C9 (Homo sapiens, UniProt P11712).
T3 construct: studied in liver microsomes of CD-1 mouse, Sprague Dawley rat, Beagle dog, cynomolgus monkey, and human; from tissue; host or cells: liver microsomes
T3 sequence (P11712 whole entry): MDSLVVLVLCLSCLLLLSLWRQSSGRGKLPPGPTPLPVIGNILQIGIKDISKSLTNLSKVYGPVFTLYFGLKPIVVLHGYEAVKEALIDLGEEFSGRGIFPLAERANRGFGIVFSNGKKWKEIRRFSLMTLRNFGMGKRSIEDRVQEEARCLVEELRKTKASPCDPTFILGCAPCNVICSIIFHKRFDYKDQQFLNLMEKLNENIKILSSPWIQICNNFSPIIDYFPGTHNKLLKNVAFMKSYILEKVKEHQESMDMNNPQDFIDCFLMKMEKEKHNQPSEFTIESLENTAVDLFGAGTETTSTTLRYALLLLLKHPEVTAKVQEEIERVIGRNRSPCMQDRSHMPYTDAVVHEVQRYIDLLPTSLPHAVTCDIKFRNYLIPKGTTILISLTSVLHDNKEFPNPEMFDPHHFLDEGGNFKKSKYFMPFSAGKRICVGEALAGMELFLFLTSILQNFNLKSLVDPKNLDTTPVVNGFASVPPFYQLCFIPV
The data set is described as above. It counts as in vitro ADME. The note with it: species not given, 0.05-50 μM tested. Here is the method: as §1

The target in data set [5] is T4, CYP2D6 (Homo sapiens, UniProt P10635).
T4 construct: studied in liver microsomes of CD-1 mouse, Sprague Dawley rat, Beagle dog, cynomolgus monkey, and human; from tissue; host or cells: liver microsomes
T4 sequence (P10635 whole entry): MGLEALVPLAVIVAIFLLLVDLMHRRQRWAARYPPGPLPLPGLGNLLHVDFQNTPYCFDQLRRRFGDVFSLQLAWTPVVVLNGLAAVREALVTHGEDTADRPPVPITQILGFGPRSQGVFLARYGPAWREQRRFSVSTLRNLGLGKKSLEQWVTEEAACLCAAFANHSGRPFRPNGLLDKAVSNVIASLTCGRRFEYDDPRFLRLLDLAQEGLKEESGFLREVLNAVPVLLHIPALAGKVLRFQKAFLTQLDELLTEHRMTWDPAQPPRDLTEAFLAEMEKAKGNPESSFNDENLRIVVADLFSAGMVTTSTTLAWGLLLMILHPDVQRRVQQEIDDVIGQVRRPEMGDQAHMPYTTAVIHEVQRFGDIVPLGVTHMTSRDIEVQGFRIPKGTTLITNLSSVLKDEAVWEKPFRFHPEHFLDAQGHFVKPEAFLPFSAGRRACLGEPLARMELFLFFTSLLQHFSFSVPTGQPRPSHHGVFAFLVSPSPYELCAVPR
Described as above. It counts as in vitro ADME. Particulars: species not given, 0.05-50 μM tested. As to the method:
as §1

Data set [6] deals with T5, CYP3A4 (Homo sapiens, UniProt P08684).
T5 construct: studied in liver microsomes of CD-1 mouse, Sprague Dawley rat, Beagle dog, cynomolgus monkey, and human; from tissue; host or cells: liver microsomes
T5 sequence (P08684 whole entry): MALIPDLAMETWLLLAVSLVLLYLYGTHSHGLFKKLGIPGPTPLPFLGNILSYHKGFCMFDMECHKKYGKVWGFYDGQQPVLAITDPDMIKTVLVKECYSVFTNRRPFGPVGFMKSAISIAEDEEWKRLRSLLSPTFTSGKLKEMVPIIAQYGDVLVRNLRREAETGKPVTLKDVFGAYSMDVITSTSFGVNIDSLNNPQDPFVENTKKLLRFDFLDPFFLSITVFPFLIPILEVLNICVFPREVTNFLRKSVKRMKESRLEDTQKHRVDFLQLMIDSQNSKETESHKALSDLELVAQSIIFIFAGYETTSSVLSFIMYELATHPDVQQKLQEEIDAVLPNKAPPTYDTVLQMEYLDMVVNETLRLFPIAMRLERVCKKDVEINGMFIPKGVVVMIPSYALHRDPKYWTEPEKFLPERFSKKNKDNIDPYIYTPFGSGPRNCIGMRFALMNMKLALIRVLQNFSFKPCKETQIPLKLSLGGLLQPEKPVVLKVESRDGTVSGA
The data set is described as above. The format is in vitro ADME. Particulars: species not given, 0.05-50 μM tested. Here is the method: as §1

pIC50: −log10 of the molar value.

In the case of `CC1(C)C(=O)C(C#N)=C[C@]2(C)C3=CC(=O)[C@@H]4[C@@H]5C[C@@](C)(c6ncco6)CC[C@]5(C)CC[C@@]4(C)[C@]3(C)CC[C@@H]12` [Example 6, (4aR,6aS,6bR,8aS,11S,12aS,12bR,14bS)-4,4,6a,6b,8a,11,14b-heptamethyl-11-(oxazol-2-yl)-3,13-dioxo-3,4,4a,5,6,6a,6b,7,8,8a,9,10,11,12,12a,12b,13,14b-octadecahydropicene-2-carbonitrile], the pIC50 was above 8.00 in data set [1]; below 4.30 in data set [2]; 5.25 in data set [3]; 5.68 in data set [4]; 5.16 in data set [5]; 6.30 in data set [6].

Regarding `CC1(C)C(=O)C(C#N)=C[C@]2(C)C3=CC(=O)[C@@H]4[C@@H]5C[C@@](C)(c6nnc(C7CC7)o6)CC[C@]5(C)CC[C@@]4(C)[C@]3(C)CC[C@@H]12` [Example 16, (4aR,6aS,6bR,8aS,11S,12aS,12bR,14bS)-11-(5-cyclopropyl-1,3,4-oxadiazol-2-yl)-4,4,6a,6b,8a,11,14b-heptamethyl-3,13-dioxo-3,4,4a,5,6,6a,6b,7,8,8a,9,10,11,12,12a,12b,13,14b-octadecahydropicene-2-carbonitrile], the pIC50 in data set [1] was above 8.00; in data set [2], below 4.30; in data set [3], 5.13; in data set [4], 5.70; in data set [5] it was 4.83; in data set [6], 5.82.

In the case of `CC1(C)C(=O)C(C#N)=C[C@]2(C)C3=CC(=O)[C@@H]4[C@@H]5C[C@@](C)(c6nc(-c7ccccc7)n[nH]6)CC[C@]5(C)CC[C@@]4(C)[C@]3(C)CC[C@@H]12` [Example 8, (4aR,6aS,6bR,8aS,11S,12aS,12bR,14bS)-4,4,6a,6b,8a,11,14b-heptamethyl-3,13-dioxo-11-(3-phenyl-1H-1,2,4-triazol-5-yl)-3,4,4a,5,6,6a,6b,7,8,8a,9,10,11,12,12a,12b,13,14b-octadecahydropicene-2carbonitrile], in data set [1], the pIC50 was 7.00 to 8.00.

With `CC1(C)C(=O)C(C#N)=C[C@]2(C)C3=CC(=O)[C@@H]4[C@@H]5C[C@@](C)(N6CCCC6)CC[C@]5(C)CC[C@@]4(C)[C@]3(C)CC[C@@H]12` [Example 21, (4aR,6aS,6bR,8aS,11S,12aS,12bR,14bS)-4,4,6a,6b,8a,11,14b-heptamethyl-3,13-dioxo-11-(pyrrolidin-1-yl)-3,4,4a,5,6,6a,6b,7,8,8a,9,10,11,12,12a,12b,13,14b-octadecahydropicene-2-carbonitrile], the pIC50 in data set [1] was 7.00 to 8.00.

`CC1(C)C(=O)C(C#N)=C[C@]2(C)C3=CC(=O)[C@@H]4[C@@H]5C[C@@](C)(c6nnc(N)o6)CC[C@]5(C)CC[C@@]4(C)[C@]3(C)CC[C@@H]12` [Example 27, (4aR,6aS,6bR,8aS,11S,12aS,12bR,14bS)-11-(5-amino-1,3,4-oxadiazol-2-yl)-4,4,6a,6b,8a,11,14b-heptamethyl-3,13-dioxo-3,4,4a,5,6,6a,6b,7,8,8a,9,10,11,12,12a,12b,13,14b-octadecahydropicene-2-carbonitrile]: the pIC50 in data set [1] is 7.00 to 8.00.

For the compound `CC1(C)C(=O)C(C#N)=C[C@]2(C)C3=CC(=O)[C@@H]4[C@@H]5C[C@@](C)(n6cnnc6)CC[C@]5(C)CC[C@@]4(C)[C@]3(C)CC[C@@H]12` [Example 17, (4aR,6aS,6bR,8aS,11S,12aS,12bR,14bS)-4,4,6a,6b,8a,11,14b-heptamethyl-3,13 dioxo-11-(4H-1,2,4-triazol-4-yl)-3,4,4a,5,6,6a,6b,7,8,8a,9,10,11,12,12a,12b,13,14b-octadecahydropicene-2-carbonitrile], the pIC50 is below 4.30 in data set [2]; 4.77 in data set [3]; 5.66 in data set [4]; 4.45 in data set [5]; 7.00 in data set [6].

In general, pIC50 refers to the negative decadic logarithm of the IC50, by convention in mol/L.

The record behind these values is patent US20220017566A1, “TERPINOID DERIVATIVES AND USES THEREOF” (SICHUAN HAISCO PHARMACEUTICAL CO., LTD., priority 2018, published 2022).
